Laboratory results from US12410174B1, “Small molecular inhibitors of sting signaling compositions and methods of use” (TYERELL IMMUNOTHERAPEUTICS INC, priority 2020, dated 2025).
Entries after “also recorded” stand apart in the source; their conditions may differ.

Key:
[1] = system: TREX1-deficient macrophages; assay: qPCR of Cxcl10 in TREX1 knockout (TKO) bone marrow derived macrophages; type: cell-based, mouse; settings: TKO BMDM, compared to DMSO control
Protocol: (§1) MEFs were obtained from E13.5 embryos by a standard procedure. Bone Marrow Derived Macro-phages (BMDM) were isolated from hind-limb femurs of 8-10 weeks old WT and Trex1 KO (TKO) mice. The hematopoietic cells from the bone marrow were cultured in complete DMEM (Invitrogen) including 10 ng/ml of Mouse Recombinant Colony-Stimulating Factor (M-CSF, R&D Systems) for 10 to 14 days.
(§2) Example 11: qPCR total RNA were reverse-transcribed using M-MLV Reverse Transcriptase (Promega). Real-time PCR was performed using Taqman Gene Expression Assay (Applied Biosystems) for innate immune genes and inflammatory cytokines.

STING signaling [2] = assay: Confocal analysis of STING trafficking and IRF3 translocation in hTERT cells; type: cell-based, human; settings: 6 hours after ISD transfection
Protocol: FIG. 2E are photographs showing confocal analysis of STING trafficking using anti-Sting performed at 6 hours after ISD transfection with Y1+220/without 220, Mock is shown (210), ISD treatment only (220) was used as control, treatment same as in FIG. 2A, according to an embodiment of the invention;
Example 10: Immunofluorescence Microscopy: Cells were cultured and treated in their appropriate media on Lab-Tek II chamber slides. Cell were fixed with 4% paraformaldehyde for 15 minutes in at 37° C. and permeabilized with 0.05% Triton X-100 for 5 minutes at room temperature. Immunostaining was performed with rabbit-anti-STING polyclonal, rabbit-anti-IRF3 (Santa Cruz Biotechnology) or rabbit-anti-p65 (Cell Signaling) followed by fluorescence conjugated secondary antibodies (FITC-goat-anti-rabbit) (Invitrogen).

STING signaling [3] = assay: IFNβ ELISA in normal hTERT cells after ISD transfection; type: cell-based, human
Protocol: (§3) Example 9: Interferon β Elisa analysis: Interferon β Elisa was performed using either the IFNβ human ELISA Kit from Invitrogen or the Human IFNβ ELISA Kit from PBL Interferon Source following the manufacturer's protocol.

STING signaling [4] = assay: Western blot of STING, pTBK1 and pIRF3 in hTERT cells after ISD transfection; type: cell-based, human; settings: 6 hours after ISD transfection
Protocol: Example 8: Immunoblot analysis: Equal amounts of proteins were resolved on sodium dodecyl sulfate (SDS)-Polyacrylamide gels and then transferred to polyvinylidene fluoride (PVDF) membranes (Millipore). After blocking with 5% Blocking Reagent, membranes were incubated with various primary antibodies (and appropriate secondary antibodies). The image was resolved using an enhanced chemiluminescence system ECL (Thermo Scientific) and detected by autoradiography (Kodak). Antibodies: rabbit polyclonal antibody against STING was developed in our laboratory as described previously in Ishikawa et al, 2008; other antibodies were obtained from following sources: β-actin (Sigma Aldrich), p-IRF3 (Cell Signaling), IRF3 (Santa Cruz Biotechnology), p-p65 (Cell Signaling), p65 (Cell Signaling), p-TBK1 (Cell Signaling), TBK1 (Abcam), cGAS (Cell Signaling).

STING signaling [5] = assay: qPCR of IFNβ1 / Cxcl10 in normal hTERT cells after ISD transfection; type: cell-based, human
Protocol: as §2

STING signaling [6] = assay: IFNβ ELISA in MEF cells after ISD treatment; type: cell-based, murine
Protocol: as §3

STING signaling [7] = assay: qPCR of Cxcl10 / Cxcl5 in MEF cells after ISD transfection; type: cell-based, murine
Protocol: as §1, §2

## N#Cc1c(NC(=O)c2ccccc2Cl)n(Cc2ccccc2)c2nc3ccccc3nc12 [Compound Y1, N-{1-benzyl-3-cyano-1H-pyrrolo[2,3-ß]quinoxalin-2-yl}-2-chlorobenzamide]
[1]
  Cxcl10 expression / cytokine production in TREX1-deficient macrophages (qPCR): can repress cytokine production in TREX1-defective cells; also recorded: dramatically decreased; also recorded: inhibits TREX1 dependent Cxcl10 expression
STING signaling [2]
  IRF3 translocation (confocal analysis): able to prevent
  STING trafficking (confocal analysis): effectively preventing STING trafficking; also recorded: able to prevent
STING signaling [3]
  IFNβ production (ELISA): dramatically decreased IFNβ expression and production
STING signaling [4]
  STING, TBK1 and IRF3 phosphorylation (Western blot): robustly prevented STING phosphorylation and subsequently TBK1 and IRF3 phosphorylation; also recorded: able to prevent the phosphorylation of STING, TBK1 and IRF3
STING signaling [5]; normal hTERT cells stimulated with ISD, 50 μM, 25 μM or 5 μM
  production of STING-inducible cytokine Cxcl10 (qPCR): robustly inhibited
STING signaling [5]; normal hTERT cells, 6 hours after ISD transfection
  IFNβ expression (qPCR of IFNβ1): dramatically decreased IFNβ expression and production
STING signaling [6]
  IFNβ production (ELISA): reproducibly decreased the production of IFNβ; also recorded: dramatically decreased
STING signaling [7]
  Cxcl10 production in response to ISD (qPCR): dramatically decreased
STING signaling [7]; 50 μM
  Cxcl5 production in response to ISD (qPCR): dramatically decreased
